Results published in patent US8293742B2, “Preferential vasoconstriction compositions and methods of use” (Alpha Synergy Development, Inc., priority 2008, dated 2012).

Tests used:
[1] = tested on: eyes of a patient with an ocular condition; conditions: brimonidine 0.01-[…] (left eye) compared with tetrahydrozoline 0.05%, oxymetazoline […], naphazoline […] (right eye); baseline redness 4/4
Description: In an average clinical situation, baseline redness is at 1-1.5/4.

chronic red eyes = test: Chronic red eyes, eld brimonidine vs Naphcon-A, patient satisfaction assessment (Example 5); assay type: in vivo, human; conditions: brimonidine at […], drops twice a day for three to five weeks, seven patients
Method: The treatment was through drops twice a day for three to five weeks. At the end, patient satisfaction assessment was conducted.

[2] = tested on: vasoconstriction, rebound hyperemia, intraocular pressure, corneal endothelial cell pump; conditions: FIG. 2
rebound hyperemia = test: Reversal of pre-induced rebound hyperemia (FIGS. 5A-C); assay type: in vivo, human; conditions: right eye, brimonidine at […] after VISINE Original
Description: FIG. 5A is a baseline visual appearance of two eyes of a patient with an ocular condition.

red eye condition = test: Red eye study, brimonidine vs VISINE Original, cumulative red scores (Example 4); assay type: in vivo, human; conditions: three week scores, brimonidine at […]
Method: The patients were assigned “cumulative red scores” , prior to each administration (as baseline) and then 10 min after each dose, by dividing the bulbar conjunctiva into six sectors, each scored with a grade 1-3 score and the total cumulative score.

[3] = tested on: postoperative hyperemia and conjunctival hemorrhage; test: Lasik prophylaxis (Example 2); conditions: brimonidine 0.02%

**Q.** What does the source list for `Brc1c(N=C2NCCN2)ccc2nccnc12.O=C(O)C(O)C(O)C(=O)O` [brimonidine, 5-bromo-6-(2-imidazolidinylideneamino)quinoxaline L-tartrate]?
**A.** scleral whitening brightening effects [1]: significant scleral whitening brightening effects; patient-reported redness (chronic red eyes): All patients reported reduced redness; concentration at which intraocular pressure reduction and corneal endothelial cell pump inhibition are just at their maximum [2]: about 0.09%; concentration below which intraocular pressure reduction and endothelial cell pump inhibition drop off exponentially ([2]; vasoconstrictive effect remains largely unchanged): below 0.08%; reversal of induced rebound hyperemia (rebound hyperemia): reversing the VISINE Original® induced rebound hyperemia; average redness count after administration (went down to) (red eye condition): 1.6; cosmetic appearance from day 1 vs. no vasoconstrictor and vs. Naphcon-A [3]: much improved; eye appearance after Lasik ([3]; group expanded to over 500 eyes): white quiet eye is noted in most patients
